30 molecules from ChEMBL document CHEMBL1681645, “Pyrrolo[1,2-f]triazines as JAK2 inhibitors: achieving potency and selectivity for JAK2 over JAK3” (Bioorg Med Chem Lett, 2011) can be followed below.

For orientation: IC50 means the concentration needed to halve the response being measured.

A short description of experiment [1]: Antiproliferative activity against human SET2 cells assessed as inhibition of [3H]thymidine incorporation after 72 hrs. Type of experiment: functional, cell-based. The settings on record: SET-2. In general terms: Incorporation of labelled thymidine or its analogues reports DNA synthesis.
Experiment [2] addresses Tyrosine-protein kinase JAK2 (Homo sapiens, UniProt O60674). The experiment in a line: Inhibition of JAK2 after 60 mins.
Experiment [3] can be described thus: Selectivity ratio of IC50 for JAK3 over IC50 for JAK2.
The nature of experiment [4]: Selectivity ratio of IC50 for JAK1 over IC50 for JAK2.
Experiment [5] concerns the target T1, Tyrosine-protein kinase JAK3 (Homo sapiens, UniProt P52333).
T1 sequence (P52333 whole entry): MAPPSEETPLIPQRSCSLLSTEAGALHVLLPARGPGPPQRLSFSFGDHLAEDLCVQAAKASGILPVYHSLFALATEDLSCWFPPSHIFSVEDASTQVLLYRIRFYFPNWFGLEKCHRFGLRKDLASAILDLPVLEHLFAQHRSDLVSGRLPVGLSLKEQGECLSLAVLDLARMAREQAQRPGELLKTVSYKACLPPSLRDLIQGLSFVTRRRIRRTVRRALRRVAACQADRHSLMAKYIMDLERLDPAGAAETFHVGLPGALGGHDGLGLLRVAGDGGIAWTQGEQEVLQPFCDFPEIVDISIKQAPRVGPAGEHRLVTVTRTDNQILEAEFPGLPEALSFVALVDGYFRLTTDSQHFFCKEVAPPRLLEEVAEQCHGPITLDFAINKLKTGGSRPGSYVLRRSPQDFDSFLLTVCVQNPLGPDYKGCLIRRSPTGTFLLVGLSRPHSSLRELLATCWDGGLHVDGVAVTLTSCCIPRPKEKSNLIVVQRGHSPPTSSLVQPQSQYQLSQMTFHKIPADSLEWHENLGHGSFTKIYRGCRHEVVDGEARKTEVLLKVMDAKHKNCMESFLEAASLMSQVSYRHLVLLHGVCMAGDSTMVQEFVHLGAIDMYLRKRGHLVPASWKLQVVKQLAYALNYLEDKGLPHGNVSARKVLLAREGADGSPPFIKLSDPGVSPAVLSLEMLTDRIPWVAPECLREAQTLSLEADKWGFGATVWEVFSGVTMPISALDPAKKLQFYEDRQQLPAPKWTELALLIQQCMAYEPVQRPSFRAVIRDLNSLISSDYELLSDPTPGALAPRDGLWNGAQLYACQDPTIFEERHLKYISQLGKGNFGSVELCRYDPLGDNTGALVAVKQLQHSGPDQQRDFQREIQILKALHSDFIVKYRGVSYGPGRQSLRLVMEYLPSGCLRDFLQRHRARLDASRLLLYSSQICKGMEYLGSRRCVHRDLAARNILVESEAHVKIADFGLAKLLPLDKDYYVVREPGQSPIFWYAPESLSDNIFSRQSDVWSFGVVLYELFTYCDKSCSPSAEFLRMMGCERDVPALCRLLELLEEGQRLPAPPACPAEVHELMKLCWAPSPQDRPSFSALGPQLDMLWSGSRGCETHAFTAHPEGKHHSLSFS
In words: Inhibition of JAK3 after 60 mins.

Chain of Tyrosine-protein kinase JAK2 (O60674 whole entry): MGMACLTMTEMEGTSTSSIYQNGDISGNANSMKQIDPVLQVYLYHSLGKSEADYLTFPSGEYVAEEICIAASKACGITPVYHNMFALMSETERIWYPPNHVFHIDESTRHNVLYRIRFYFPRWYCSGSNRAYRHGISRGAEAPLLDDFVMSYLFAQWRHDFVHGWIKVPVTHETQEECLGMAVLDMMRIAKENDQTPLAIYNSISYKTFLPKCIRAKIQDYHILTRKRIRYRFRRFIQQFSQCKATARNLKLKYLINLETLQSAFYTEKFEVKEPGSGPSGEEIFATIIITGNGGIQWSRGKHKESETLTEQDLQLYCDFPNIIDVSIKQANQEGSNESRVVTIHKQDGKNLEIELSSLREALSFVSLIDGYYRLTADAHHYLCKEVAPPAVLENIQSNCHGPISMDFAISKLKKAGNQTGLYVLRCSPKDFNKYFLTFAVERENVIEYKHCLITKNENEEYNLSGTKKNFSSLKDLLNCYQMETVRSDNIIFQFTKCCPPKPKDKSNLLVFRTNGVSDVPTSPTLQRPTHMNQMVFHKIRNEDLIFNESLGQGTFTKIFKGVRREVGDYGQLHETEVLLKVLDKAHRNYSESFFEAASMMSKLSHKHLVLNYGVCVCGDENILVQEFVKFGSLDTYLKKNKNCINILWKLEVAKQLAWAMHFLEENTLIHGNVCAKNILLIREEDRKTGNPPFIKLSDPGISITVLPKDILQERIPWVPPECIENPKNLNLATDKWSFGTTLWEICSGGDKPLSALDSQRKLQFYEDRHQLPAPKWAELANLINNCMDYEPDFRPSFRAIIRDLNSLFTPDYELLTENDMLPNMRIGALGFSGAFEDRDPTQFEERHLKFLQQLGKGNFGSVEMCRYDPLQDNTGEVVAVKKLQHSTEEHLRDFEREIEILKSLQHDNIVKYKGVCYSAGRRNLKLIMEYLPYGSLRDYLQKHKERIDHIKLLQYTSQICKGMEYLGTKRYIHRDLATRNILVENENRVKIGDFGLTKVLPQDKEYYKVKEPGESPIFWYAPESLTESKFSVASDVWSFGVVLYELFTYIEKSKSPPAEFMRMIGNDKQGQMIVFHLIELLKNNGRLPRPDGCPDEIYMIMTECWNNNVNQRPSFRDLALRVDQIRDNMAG

As for `Cc1cc(Nc2nc(N3CCN(C(=O)c4ccccc4Cl)CC3)nn3cccc23)n[nH]1`, the half-maximal inhibitory concentration (IC50) turned out to be 71 nM in experiment [1] and 7.3 nM in experiment [2].

For `CC1(c2cc(Nc3nc(N4CCN(C(=O)Cc5ccccc5)CC4)nn4cccc34)n[nH]2)CC1`, the results for the IC50 in experiment [1] and in experiment [2] were 980 nM and 22 nM, respectively.

In the case of `Cc1cc(Nc2nc(N3CCN(C(=O)Cc4ccccc4C)CC3)nn3cccc23)n[nH]1`, the IC50 in experiment [1] came out at 120 nM; in experiment [2] it was 5.3 nM.

In the case of `Cc1cc(Nc2nc(N3CCN(C(=O)c4ccccc4C#N)CC3)nn3cccc23)n[nH]1`, the results for the IC50 in experiment [1] and in experiment [2] were 140 nM and 6 nM, respectively.

Regarding `Cc1cc(Nc2nc(N3CCN(C(=O)c4ccccc4C)CC3)nn3cccc23)n[nH]1`, the IC50 in experiment [1] was 160 nM; in experiment [2] it was 3 nM.

For the molecule `CCC(=O)N1CCN(c2nc(Nc3cc(C)[nH]n3)c3cccn3n2)CC1`, the Ratio IC50 in experiment [3] is 5. Also, in experiment [2], half-maximal inhibition (IC50) was put at 22 nM.

`O=C(NC1CC1)c1cc(Nc2nc(N3CCN(C(=O)Cc4ccccc4)CC3)nn3cccc23)n[nH]1`: the IC50 in experiment [1] worked out at 1400 nM; in experiment [2], 2700 nM.

On to `Cc1cc(Nc2nc(N3CCN(C(=O)Cc4ccc(F)cc4)CC3)nn3cccc23)n[nH]1`, for which the Ratio IC50 in experiment [4] came to 6.5; in experiment [3], 25. For the same molecule, the figures for the IC50 in experiment [1] and in experiment [2] were 54 nM and 0.9 nM, respectively.

With `Cc1cc(Nc2nc(N3CCN(C(=O)Cc4ccccc4F)CC3)nn3cccc23)n[nH]1`, the results for the IC50 in experiment [1] and in experiment [2] were 170 nM and 4.6 nM, respectively.

For the molecule `Cc1cc(Nc2nc(N3CCN(C(=O)N(C)C)CC3)nn3cccc23)n[nH]1`, the results for the Ratio IC50 in experiment [4] and in experiment [3] were 5 and 11, respectively.

Consider `Cc1cc(Nc2nc(N3CCN(C(=O)Cc4ccc(F)cc4F)CC3)nn3cccc23)n[nH]1`, for which the IC50 in experiment [1] came out at 54 nM; in experiment [2], 2.4 nM.

Take `CC(C)n1cnc(Nc2nc(N3CCN(C(=O)Cc4ccccc4)CC3)nn3cccc23)c1`: the IC50 in experiment [1] amounted to 670 nM; in experiment [2], 110 nM.

In the case of `COc1cc(F)c(CC(=O)N2CCN(c3nc(Nc4cc(C)n[nH]4)c4cccn4n3)CC2)c(F)c1`, the IC50 in experiment [1] was determined as 110 nM.

`Cc1ccc(C(=O)N2CCN(c3nc(Nc4cc(C)[nH]n4)c4cccn4n3)CC2)cc1`: the IC50 in experiment [1] was 59 nM; in experiment [2], 4.5 nM.

`Cc1cc(Nc2nc(N3CCN(C(=O)N(C)C)CC3)nn3cccc23)[nH]n1` came in with an IC50 in experiment [2] of 9.3 nM.

In the case of `Cc1cc(Nc2nc(N3CCN(C(=O)CCc4ccccc4)CC3)nn3cccc23)n[nH]1`, the IC50 came to 76 nM in experiment [1] and 2 nM in experiment [2].

Turning to `Cc1ccc(CC(=O)N2CCN(c3nc(Nc4cc(C)[nH]n4)c4cccn4n3)CC2)cc1`, the IC50 is 310 nM in experiment [1] and 1.1 nM in experiment [2].

As to `Cc1cc(Nc2nc(N3CCN(C(=O)c4ccc(C#N)cc4)CC3)nn3cccc23)n[nH]1`, the IC50 worked out at 6.2 nM in experiment [1] and 4.8 nM in experiment [2].

As for `Cc1cc(Nc2nc(N3CCN(C(=O)Cc4ccccc4)CC3)nn3cccc23)n[nH]1`, the values for the half-maximal inhibitory concentration (IC50) in experiment [1] and in experiment [2] were 370 nM and 2.8 nM, respectively.

In the case of `Cc1cc(Nc2nc(N3CCN(C(=O)c4ccccc4Br)CC3)nn3cccc23)n[nH]1`, the values for the IC50 in experiment [1] and in experiment [2] were 180 nM and 2.1 nM, respectively.

In the case of `COc1ccc(CC(=O)N2CCN(c3nc(Nc4cc(C)[nH]n4)c4cccn4n3)CC2)cc1`, the values for the 50% inhibitory concentration (IC50) in experiment [1] and in experiment [2] were 630 nM and 1.2 nM, respectively.

`Cc1nnc(Nc2nc(N3CCN(C(=O)Cc4ccccc4)CC3)nn3cccc23)s1`: in experiment [3], the Ratio IC50 was 1.3. The results for the IC50 in experiment [1], in experiment [2] and in experiment [5] were 690 nM, 14000 nM and 18000 nM, respectively.

Regarding `O=C(Cc1ccccc1)N1CCN(c2nc(Nc3nccs3)c3cccn3n2)CC1`, the Ratio IC50 in experiment [4] is 2.6; in experiment [3], 37. Further, the values for the IC50 in experiment [1] and in experiment [2] were 1200 nM and 59 nM, respectively.

`O=C(Cc1ccccc1)N1CCN(c2nc(Nc3ccccn3)c3cccn3n2)CC1`: the figures for the Ratio IC50 in experiment [4] and in experiment [3] were 11 and 41, respectively. Further, half-maximal inhibition in experiment [2] (IC50) was put at 190 nM.

`Cc1cc(Nc2nc(N3CCNCC3)nn3cccc23)n[nH]1`: the Ratio IC50 in experiment [4] worked out at 16; in experiment [3], 15.

As to `Cc1cc(Nc2nc(N3CCN(C(=O)c4ccccc4)CC3)nn3cccc23)n[nH]1`, the figures for the IC50 in experiment [1] and in experiment [2] were 62 nM and 2.2 nM, respectively.

In the case of `Cc1cc(Nc2nc(N3CCN(C(=O)Cc4ccc(Cl)cc4)CC3)nn3cccc23)n[nH]1`, the IC50 in experiment [1] amounted to 590 nM; in experiment [2], 0.6 nM.

In the case of `Cc1cc(Nc2nc(N3CCN(C(=O)c4ccccc4S(C)(=O)=O)CC3)nn3cccc23)n[nH]1`, the 50% inhibitory concentration (IC50) in experiment [1] amounted to 190 nM; in experiment [2], 1.1 nM.

Consider `Cc1cc(Nc2nc(N3CCN(C(=O)Cc4c(F)cc(Cl)cc4F)CC3)nn3cccc23)n[nH]1`, for which the Ratio IC50 is 3.8 in experiment [4] and 67 in experiment [3]. Also, the IC50 in experiment [1] turned out to be 80 nM; in experiment [2], 1 nM.

`COc1ccccc1C(=O)N1CCN(c2nc(Nc3cc(C)[nH]n3)c3cccn3n2)CC1`: the IC50 in experiment [1] is 90 nM; in experiment [2] it was 3.5 nM.
